pIC50: −log10 of the molar value. Calls of active or inactive are those of the source. The rule behind the calls is not given here.
Legend:
SEM cells = test: Antiproliferative activity against human SEM cells assessed as reduction in cell viability after 72 hrs by MTT assay; type: functional, cell-based
Bos taurus [1] = organism: Bos taurus; test: Displacement of [3H]colchicine from bovine brain tubulin at 5 uM by DEAE-cellulose filter method relative to control; type: tissue-based
CCRF-CEM = test: Antiproliferative activity against human CCRF-CEM cells assessed as reduction in cell viability after 72 hrs by MTT assay; type: functional, cell-based
HL-60 = test: Antiproliferative activity against human HL-60 cells assessed as reduction in cell viability after 72 hrs by MTT assay; type: functional, cell-based; settings: HL-60, 72 h
A549 = test: cells; settings: Homo sapiens, A549, 72 h
Description: Antiproliferative activity against human A549 cells assessed as reduction in cell viability after 72 hrs by MTT assay

[2] = Inhibition of bovine brain tubulin polymerization incubated for 15 mins followed by GTP addition and measured after 20 mins by spectrophotometric method; type: tissue-based, Bos taurus
HT-29 [3] = test: cells; settings: Homo sapiens, HT-29, 72 h
HeLa [4] = test: cells; settings: Homo sapiens, 72 h
Description: Antiproliferative activity against human HeLa cells assessed as reduction in cell viability after 72 hrs by MTT assay

Bos taurus [5] = organism: Bos taurus; test: Displacement of [3H]colchicine from bovine brain tubulin at 0.5 uM by DEAE-cellulose filter method relative to control; type: tissue-based
SGC-7901 = test: Antiproliferative activity against human SGC-7901 cells assessed as reduction in cell viability after 72 hrs by MTT assay; type: functional, cell-based; settings: SGC-7901, 72 h
KB = test: Antiproliferative activity against human KB cells assessed as reduction in cell viability after 72 hrs by MTT assay; type: functional, cell-based
Tubulin = test: Inhibition of tubulin (unknown origin) polymerization incubated for 90 mins by fluorescence-based assay; type: protein-complex assay, Homo sapiens
HT-1080 = test: Antiproliferative activity against human […] cells assessed as reduction in cell viability after 72 hrs by MTT assay; type: functional, cell-based; settings: HT-1080, 72 h
HT-29 [6] = test: Induction of cell cycle arrest in human HT-29 cells assessed as increase in accumulation at G2/M phase after 24 hrs by propidium iodide staining based flow cytometric analysis; type: functional; settings: dose 1-100 nM
PBL [7] = test: Cytotoxicity against human PBL cells assessed reduction in cell viability after 72 hrs by MTT assay; type: cell-based
HeLa [8] = test: Induction of apoptosis in human HeLa cells assessed as increase in cleaved PARP level at 25 nM after 24 hrs by Western blot analysis; type: functional, cell-based
PBL [9] = test: Cytotoxicity against PHA-induced human PBL cells assessed reduction in cell viability after 72 hrs by MTT assay; type: cell-based
HeLa [10] = test: Induction of cell cycle arrest in human HeLa cells assessed as decrease in accumulation at G1 phase at 1 to 100 nM after 24 hrs by propidium iodide staining based flow cytometric analysis; type: functional; settings: dose 1-100 nM
HeLa [11] = test: Induction of cell cycle arrest in human HeLa cells assessed as decrease in cdc25c protein expression at 50 nM after 24 to 48 hrs by Western blot analysis; type: functional, cell-based; settings: time 24-48 hrs
HeLa [12] = test: Induction of cell cycle arrest in human HeLa cells assessed as increase in accumulation at G2/M phase after 24 hrs by propidium iodide staining based flow cytometric analysis; type: functional; settings: dose 1-100 nM
EO771 [13] = test: Antitumour activity against mouse EO771 cells allografted in ip dosed C57BL/6 mouse assessed as reduction in tumor mass; type: functional, organism-based; settings: dose lower 5.0 mg/kg, dose upper […]
HT-29 [14] = test: Induction of cell cycle arrest in human HT-29 cells assessed as decrease in accumulation at G1 phase at 1 to 100 nM after 24 hrs by propidium iodide staining based flow cytometric analysis; type: functional; settings: dose 1-100 nM
HeLa [15] = test: Induction of apoptosis in human HeLa cells at 50 nM after 24 to 48 hrs by annexinV-FITC/propidium iodide staining based flow cytometric analysis; type: functional, cell-based; settings: time 24-48 hrs
[16] = Toxicity in C57BL/6 mouse allografted with mouse EO771 cells assessed as reduction in body weight at 15 mg/kg, ip; type: organism-based; settings: in vivo
HeLa [17] = test: Induction of cell cycle arrest in human HeLa cells assessed as decrease in accumulation at S phase at 1 to 100 nM after 24 hrs by propidium iodide staining based flow cytometric analysis; type: functional; settings: dose 1-100 nM
EO771 [18] = test: Antitumour activity against mouse EO771 cells allografted in C57BL/6 mouse assessed as reduction in tumor volume at 5 mg/kg, ip; type: functional, organism-based
HeLa [19] = test: Induction of cell cycle arrest in human HeLa cells assessed as increase in cyclin B1 protein expression at 50 nM after 24 to 48 hrs by Western blot analysis; type: functional, cell-based; settings: time 24-48 hrs
HeLa [20] = test: Induction of apoptosis in human HeLa cells assessed as decrease in cleaved Mcl-1 protein expression at 50 nM after 24 to 48 hrs by Western blot analysis; type: functional, cell-based; settings: time 24-48 hrs
HeLa [21] = test: Induction of apoptosis in human HeLa cells assessed as decrease in cleaved XIAP protein expression at 50 nM after 24 to 48 hrs by Western blot analysis; type: functional, cell-based; settings: time 24-48 hrs
HT-29 [22] = test: Induction of cell cycle arrest in human HT-29 cells assessed as decrease in accumulation at S phase at 1 to 100 nM after 24 hrs by propidium iodide staining based flow cytometric analysis; type: functional; settings: dose 1-100 nM
[23] = target: Cyclin-dependent kinase 1 (Homo sapiens) (UniProt P06493); test: Inhibition of cdc2 phosphorylation at Y15 residues in human HeLa cells at 25 to 50 nM after 24 to 48 hrs by Western blot analysis; type: cell-based; settings: dose 25-50 nM, time 24-48 hrs
Sequence of Cyclin-dependent kinase 1 (Homo sapiens) (P06493 whole entry, looked up): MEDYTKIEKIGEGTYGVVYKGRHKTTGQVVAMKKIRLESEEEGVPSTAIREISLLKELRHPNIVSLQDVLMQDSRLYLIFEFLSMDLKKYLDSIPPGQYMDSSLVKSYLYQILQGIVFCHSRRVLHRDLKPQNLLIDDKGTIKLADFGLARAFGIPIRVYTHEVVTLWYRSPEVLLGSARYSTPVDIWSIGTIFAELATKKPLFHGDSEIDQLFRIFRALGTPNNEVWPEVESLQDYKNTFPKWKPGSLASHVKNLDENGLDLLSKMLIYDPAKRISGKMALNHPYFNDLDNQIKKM

HeLa [24] = test: Induction of ROS generation in human HeLa cells assessed as increase in DCF fluorescence at 50 nM after 24 to 48 hrs by H2-DCFDA staining based flow cytometric analysis; type: functional, cell-based; settings: time 24-48 hrs
HeLa [25] = test: Induction of apoptosis in human HeLa cells assessed as decrease in cleaved Bcl-2 protein expression at 50 nM after 24 to 48 hrs by Western blot analysis; type: functional, cell-based; settings: time 24-48 hrs

Row | SMILES | pIC50 (SEM cells) | inhibition (Bos taurus [1]) | pIC50 (CCRF-CEM) | pIC50 (HL-60) | pIC50 (A549) | pIC50 [2] | pIC50 (HT-29 [3]) | pIC50 (HeLa [4]) | inhibition (Bos taurus [5]) | other results
1 | CCOc1ccc(-c2c[nH]cc2-c2cc(OC)c(OC)c(OC)c2)cc1 | 8.55 | 92% | 7.78 | 6.83 | 7.09 | 6.09 | 7.38 | 7.43 | 80% | 
2 | CCOc1ccc(-n2cccc2-c2cc(OC)c(OC)c(OC)c2)cc1 | 6.57 | 57% | 5.52 | 6.37 | < 5.00 | 5.64 | 5.26 | 5.47 |  | 
3 | COc1ccc(-n2cccc2-c2cc(OC)c(OC)c(OC)c2)cc1N |  |  |  |  |  |  |  |  |  | pIC50 (SGC-7901): 6.41; pIC50 (KB): 7.35; pIC50 (Tubulin): 5.00; pIC50 (HT-1080): 7.15
4 | COc1cc(-n2cccc2-c2ccc3ccccc3c2)cc(OC)c1OC | 6.82 | 74% | 5.88 | 6.40 | 5.51 | 5.80 | 6.19 | 6.39 |  | 
5 | CCOc1ccc(-c2cccn2-c2cc(OC)c(OC)c(OC)c2)cc1 | 6.85 | 63% | 5.72 | 6.44 | 5.34 | 5.25 | 6.41 | 6.41 |  | 
6 | CCOc1ccc(-c2c[nH]cc2-c2cc(OC)c(OC)c(OC)c2)cc1F | 8.77 | 93% | 8.12 | 6.77 | 7.55 | 6.18 | 7.55 | 7.59 | 83% | Activity (HT-29 [6]): Dose-dependent effect; pIC50 (PBL [7]): < 5.00; Activity (HeLa [8]): Active; pIC50 (PBL [9]): < 5.00; Activity (HeLa [10]): Active; Activity (HeLa [11]): Active; Activity (HeLa [12]): Dose-dependent effect; Activity (EO771 [13]): Dose-dependent effect; Activity (HT-29 [14]): Active; Activity (HeLa [15]): Active; Activity [16]: Non-Toxic; Activity (HeLa [17]): Active; Activity (EO771 [18]): Dose-dependent effect; Activity (HeLa [19]): Active; Activity (HeLa [20]): Active; Activity (HeLa [21]): Active; Activity (HT-29 [22]): Active; inhibition [23]: Active; Activity (HeLa [24]): Active; Activity (HeLa [25]): Active
7 | CCOc1ccc(-c2c[nH]cc2-c2cc(OC)c(OC)c(OC)c2)cc1Cl | 7.41 | 90% | 6.82 | 6.84 | 7.10 | 6.15 | 7.19 | 7.43 | 68% | 
8 | COc1cc(-n2cccc2-c2ccc(C)cc2)cc(OC)c1OC | 6.57 | 60% | 5.61 | 6.46 | 5.02 | 5.80 | 5.41 | 5.49 |  | 

Reference: ChEMBL document CHEMBL4732189, “A facile synthesis of diaryl pyrroles led to the discovery of potent colchicine site antimitotic agents” (Eur J Med Chem, 2021)
